Data as given in patent US20260061042A1, “POLYNUCLEOTIDE COMPOSITIONS AND USES THEREOF” (Pfizer Inc., priority 2024, published 2026).
Substitutions are numbered along the chain they refer to. Where two headings read alike, the source gives them in different places.

What was measured:
Experiment in all cases: PapG Luminex ligand binding at equilibrium
Conditions in all cases: HEPES pH 7.4, 4° C. overnight
[1] = target: T1, E. coli CFT073 PapG-II lectin domain PapGLD N96S WT v1, SEQ ID NO: 13 (Escherichia coli, UniProt A0A0H2VAQ6, N116S)
T1 sequence (A0A0H2VAQ6 with tags, fused parts or gaps N116S): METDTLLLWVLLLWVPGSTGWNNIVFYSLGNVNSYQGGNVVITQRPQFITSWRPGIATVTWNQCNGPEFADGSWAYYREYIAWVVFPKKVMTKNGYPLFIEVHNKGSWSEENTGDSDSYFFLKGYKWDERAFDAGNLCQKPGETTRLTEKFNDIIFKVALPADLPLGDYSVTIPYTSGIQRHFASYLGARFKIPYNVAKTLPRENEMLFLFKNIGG
Description: (§1) To determine the ability of PapGLD mutants to bind the porcine derived globotetraosyl ceramide ligand GalNAc-Gal-Gal-Glc-ceramide (GbO4), a Luminex ligand binding assay was developed. Surfactant Protein-A (SP-A) was coupled to the surface of MagPlex beads by EDC/NHS, to capture the lipid tail of the globotetraosyl ceramide. The Globotetraosyl ceramide/SP-A beads were incubated with an eight-point threefold titration of PapG in a 96 well flat bottom white plate with final volume of 100 microliters of 50 mM HEPES PH 7.4, 10 mM NaCl, 0.0005% Tween 20 shaking at 300 rpm, 4° C. overnight. After 20-24 hours the ligand binding plates were read on a FlexMap 3D plate reader for measurement of well-bead region specific MFI. Ligand binding equilibrium dissociation constants (Kd) were calculated assuming one site specific binding and interpolated using non-linear curve fitting (GraphPad Prism) as the ligand concentration needed to achieve half-maximal binding. The Luminex derived apparent Kd values are based on approximately fifty bead counts per assay sample.
(§2) To determine Luminex ligand binding affinities of PapG mutants for the synthetic globoside ligand Gal-Glc-phenoxy-octyl-amine (GbO2Mpo), a Luminex ligand binding assay was developed based on the direct coupling of the amine reactive globoside ligand to the EDC/NHS activated carboxylic surface of MagPlex beads. Synthesis of GbO2Mpo ligand with an octyl amine linker (for coupling to beads) was performed via methods described previously. The GbO2Mpo beads were incubated with an 8-point, threefold titration of PapG in a 96-well flat bottom white plate with final volume of 100 μl of 50 mM HEPES pH 7.4, 10 mM NaCl, 0.0005% Tween 20 shaking at 300 rpm, 4° C. overnight. After 20-24 hours the ligand binding plates were read on a FlexMap 3D plate reader for measurement of well-bead region specific MFI.
(§3) Binding of PapG proteins to GbO2 or GbO4 ligands was evaluated using a Luminex platform wherein ligands were coupled to MagPlex beads via surfactant protein A (for […]) or directly using […] conjugation (for […]). This assay was used to rank order binding affinities of the mutants, reported as Kd values interpolated from protein antigen titration curves (Table 7).

[2] = target: T2, E. coli CFT073 PapG-II lectin domain PapGLD N96S WT v2 (Escherichia coli, UniProt A0A0H2VDP3, N116S)
T2 sequence (A0A0H2VDP3 21-216 N116S): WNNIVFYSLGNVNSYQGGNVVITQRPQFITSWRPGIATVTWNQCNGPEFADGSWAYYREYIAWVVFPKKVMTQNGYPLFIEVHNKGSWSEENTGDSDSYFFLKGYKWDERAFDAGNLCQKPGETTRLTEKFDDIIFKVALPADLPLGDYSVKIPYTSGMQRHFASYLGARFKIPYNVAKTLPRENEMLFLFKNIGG
Description: as §1, §2, §3

[3] = target: T3, E. coli CFT073 PapG-II lectin domain PapGLD variant N96S G147A, SEQ ID NO: 21 (Escherichia coli, UniProt A0A0H2VAQ6, G167A/N116S)
T3 sequence (A0A0H2VAQ6 with tags, fused parts or gaps N116S/G167A): T1 sequence (A0A0H2VAQ6 with tags, fused parts or gaps N116S) with G167A
Description: as §1, §2, §3

[4] = target: T4, E. coli CFT073 PapG-II lectin domain PapGLD variant N96S G168A, SEQ ID NO: 17 (Escherichia coli, UniProt A0A0H2VAQ6, G188A/N116S)
T4 sequence (A0A0H2VAQ6 with tags, fused parts or gaps N116S/G188A): T1 sequence (A0A0H2VAQ6 with tags, fused parts or gaps N116S) with G188A
Description: as §1, §2, §3

[5] = target: T5, E. coli CFT073 full-length donor strand complemented PapG-II, PapGDSF N96S N242S N286S (Escherichia coli, UniProt A0A0H2VAQ6, N116S/N262S/N306S)
T5 construct: mouse IgGK signal peptide, C-terminal 8xHis, ExpiCHO, purified
T5 sequence (A0A0H2VAQ6 with tags, fused parts or gaps N116S/N262S/N306S): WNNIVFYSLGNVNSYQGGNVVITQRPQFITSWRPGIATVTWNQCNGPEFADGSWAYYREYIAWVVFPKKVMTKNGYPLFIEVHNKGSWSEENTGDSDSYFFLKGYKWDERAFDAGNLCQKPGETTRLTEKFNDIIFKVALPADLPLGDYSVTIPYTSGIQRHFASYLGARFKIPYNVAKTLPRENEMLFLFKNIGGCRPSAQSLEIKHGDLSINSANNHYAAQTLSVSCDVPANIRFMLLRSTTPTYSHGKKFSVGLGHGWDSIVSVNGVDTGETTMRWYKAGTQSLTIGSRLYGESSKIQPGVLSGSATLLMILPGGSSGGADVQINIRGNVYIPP
Description: as §1, §2, §3

[6] = GbO2Mpo beads, read-out: Kd (GbO2)
[7] = GbO4 beads, read-out: Kd (GbO4)

**Q.** Which Kd [1, 6] does the source give for Gal-Glc-phenoxy-octyl-amine [GbO2] here?
**A.** 0.7 nM

**Q.** And the Kd [2, 6]?
**A.** 1.1 nM

**Q.** What about the Kd [3, 6] of the same substance?
**A.** 4.6 nM

**Q.** What about the Kd [4, 6] of the same substance?
**A.** 2.7 nM

**Q.** And the Kd [5, 6]?
**A.** 2.2 nM

**Q.** With GalNAc-Gal-Gal-Glc-ceramide [GbO4] as the substance, how does the Kd [1, 7] read?
**A.** 14.1 nM

**Q.** What about the Kd [2, 7] of the same substance?
**A.** 29 nM

**Q.** And the Kd [3, 7]?
**A.** > 300 nM

**Q.** And the Kd [4, 7]?
**A.** > 100 nM

**Q.** And the Kd [5, 7]?
**A.** 3 nM
